This assay has as its system MV-4-11 cells. Nature of the assay: Gene expression microarray analysis (Affymetrix PrimeView) and GSEA. In kind it is cell-based, human. On the set-up: RFU PODN (11730768_x_at) / Fold change /veh PODN (11730768_x_at) / RFU LINC00158 (11744669_a_at) / Fold change /veh LINC00158 (11744669_a_at) / RFU DUSP10 (11751237_a_at) / Fold change /veh DUSP10 (11751237_a_at) / RFU ID3 (11757404_x_at) / Fold change /veh ID3 (11757404_x_at) / RFU PLEKHG5 (11737974_s_at) / Fold change /veh PLEKHG5 (11737974_s_at) / RFU LRRC4B (11730491_at) / Fold change /veh LRRC4B (11730491_at) / RFU GIMAP4 (11747438_a_at) / Fold change /veh GIMAP4 (11747438_a_at) / RFU KRT8 (11758183_x_at) / Fold change /veh KRT8 (11758183_x_at) / RFU CNN1 (11734310_a_at) / Fold change /veh CNN1 (11734310_a_at) / RFU VPS37D (11726825_at) / Fold change /veh VPS37D (11726825_at) / RFU C10orf10 (11716522_x_at) / Fold change /veh C10orf10 (11716522_x_at) / RFU KIR2DL2 /// KIR2DL4 /// KIR2DL5A /// KIR2DL5B /// KIR2DS1 /// KIR2DS2 /// KIR2DS3 /// KIR2DS4 /// KIR3DL3 /// KIR3DL3 /// KIR3DS1 (11738374_at) / Fold change /veh KIR2DL2 /// KIR2DL4 /// KIR2DL5A /// KIR2DL5B /// KIR2DS1 /// KIR2DS2 /// KIR2DS3 /// KIR2DS4 /// KIR3DL3 /// KIR3DL3 /// KIR3DS1 (11738374_at) / RFU C1QL1 (11718748_at) / Fold change /veh C1QL1 (11718748_at) / RFU TMPRSS4 (11747572_a_at) / Fold change /veh TMPRSS4 (11747572_a_at) / RFU HAMP (11756126_x_at) / Fold change /veh HAMP (11756126_x_at) / RFU RNFT2 (11725882_a_at) / Fold change /veh RNFT2 (11725882_a_at) / RFU NR4A2 (11747474_a_at) / Fold change /veh NR4A2 (11747474_a_at) / RFU ABCC12 (11746883_a_at) / Fold change /veh ABCC12 (11746883_a_at) / RFU TMEM136 (11760407_x_at) / Fold change /veh TMEM136 (11760407_x_at) / RFU CLDN22 /// WWC2 (11732394_at) / Fold change /veh CLDN22 /// WWC2 (11732394_at) / RFU HLA-DPB1 (11760878_x_at) / Fold change /veh HLA-DPB1 (11760878_x_at) / RFU SPINT1 (11716480_a_at) / Fold change /veh SPINT1 (11716480_a_at) / RFU GAP43 (11754022_s_at) / Fold change /veh GAP43 (11754022_s_at) / RFU A4GNT (11735810_at) / Fold change /veh A4GNT (11735810_at) / RFU PRB3 (11715151_x_at) / Fold change /veh PRB3 (11715151_x_at) / RFU TUBB4B (11761932_at) / Fold change /veh TUBB4B (11761932_at) / RFU CAPN14 (11732068_a_at) / Fold change /veh CAPN14 (11732068_a_at) / RFU TMCC2 (11721928_a_at) / Fold change /veh TMCC2 (11721928_a_at) / RFU IRGQ (11745062_a_at) / Fold change /veh IRGQ (11745062_a_at) / RFU FAM174B (11720279_a_at) / Fold change /veh FAM174B (11720279_a_at) / RFU TMPRSS4 (11748680_a_at) / Fold change /veh TMPRSS4 (11748680_a_at) / RFU FAM212B (11763350_a_at) / Fold change /veh FAM212B (11763350_a_at) / RFU PLEKHG5 (11743358_a_at) / Fold change /veh PLEKHG5 (11743358_a_at) / RFU ZSCAN30 (11745921_a_at) / Fold change /veh ZSCAN30 (11745921_a_at) / RFU CMKLR1 (11741424_a_at) / Fold change /veh CMKLR1 (11741424_a_at) / RFU LOC101060620 /// MAPK8IP1 (11723275_at) / Fold change /veh LOC101060620 /// MAPK8IP1 (11723275_at) / RFU SPTSSB (11747773_x_at) / Fold change /veh SPTSSB (11747773_x_at) / RFU PRSS12 (11739890_at) / Fold change /veh PRSS12 (11739890_at) / RFU BIN1 (11741810_x_at) / Fold change /veh BIN1 (11741810_x_at) / RFU WNT11 (11732464_a_at) / Fold change /veh WNT11 (11732464_a_at) / RFU C10orf10 (11716521_a_at) / Fold change /veh C10orf10 (11716521_a_at) / RFU C5orf56 (11738089_at) / Fold change /veh C5orf56 (11738089_at) / RFU CYB561 (11721691_x_at) / Fold change /veh CYB561 (11721691_x_at) / RFU ANKRD19P (11752326_a_at) / Fold change /veh ANKRD19P (11752326_a_at) / RFU OR2T12 /// OR2T33 /// OR2T8 (11738714_s_at) / Fold change /veh OR2T12 /// OR2T33 /// OR2T8 (11738714_s_at) / RFU VCAN (11748164_a_at) / Fold change /veh VCAN (11748164_a_at) / RFU JSRP1 (11732532_at) / Fold change /veh JSRP1 (11732532_at) / RFU KRTAP10-11 (11738290_x_at) / Fold change /veh KRTAP10-11 (11738290_x_at) / RFU MYO3A (11730013_a_at) / Fold change /veh MYO3A (11730013_a_at) / RFU EBF3 (11725865_a_at) / Fold change /veh EBF3 (11725865_a_at) / RFU CAMK2N1 (11719241_x_at) / Fold change /veh CAMK2N1 (11719241_x_at) / RFU C5orf56 (11738088_a_at) / Fold change /veh C5orf56 (11738088_a_at) / RFU OLFML3 (11715873_a_at) / Fold change /veh OLFML3 (11715873_a_at) / RFU LOC100653217 /// NTM (11731650_a_at) / Fold change /veh LOC100653217 /// NTM (11731650_a_at) / RFU MAPK11 (11762145_a_at) / Fold change /veh MAPK11 (11762145_a_at) / RFU FIZ1 (11724087_x_at) / Fold change /veh FIZ1 (11724087_x_at) / RFU OASL (11726364_x_at) / Fold change /veh OASL (11726364_x_at) / RFU SOX15 (11748057_x_at) / Fold change /veh SOX15 (11748057_x_at) / RFU CD79A (11719716_a_at) / Fold change /veh CD79A (11719716_a_at) / RFU HIST1H1D (11736915_at) / Fold change /veh HIST1H1D (11736915_at) / RFU CASKIN2 (11723855_a_at) / Fold change /veh CASKIN2 (11723855_a_at) / RFU LOC730098 (11760151_x_at) / Fold change /veh LOC730098 (11760151_x_at) / RFU OR4N2 (11742367_at) / Fold change /veh OR4N2 (11742367_at) / RFU PRRT2 (11749266_a_at) / Fold change /veh PRRT2 (11749266_a_at) / RFU SNX32 (11753110_a_at) / Fold change /veh SNX32 (11753110_a_at) / RFU CDHR5 (11726645_a_at) / Fold change /veh CDHR5 (11726645_a_at) / RFU RCAN1 (11760418_a_at) / Fold change /veh RCAN1 (11760418_a_at) / RFU FAM167A (11723789_a_at) / Fold change /veh FAM167A (11723789_a_at) / RFU FAM26E (11764081_at) / Fold change /veh FAM26E (11764081_at) / RFU ISYNA1 (11749810_s_at) / Fold change /veh ISYNA1 (11749810_s_at) / RFU ACY1 (11761880_at) / Fold change /veh ACY1 (11761880_at) / RFU 11764098_at / Fold change /veh 11764098_at / RFU SAMD14 (11745864_x_at) / Fold change /veh SAMD14 (11745864_x_at) / RFU NPB (11741838_a_at) / Fold change /veh NPB (11741838_a_at) / RFU TMPRSS6 (11731388_a_at) / Fold change /veh TMPRSS6 (11731388_a_at) / RFU KRTAP10-2 (11738614_at) / Fold change /veh KRTAP10-2 (11738614_at) / RFU ARHGAP8 /// PRR5-ARHGAP8 (11727945_x_at) / Fold change /veh ARHGAP8 /// PRR5-ARHGAP8 (11727945_x_at) / RFU KRTAP5-7 /// NADSYN1 (11734609_at) / Fold change /veh KRTAP5-7 /// NADSYN1 (11734609_at) / RFU RASL12 (11751679_a_at) / Fold change /veh RASL12 (11751679_a_at) / RFU CDKN2B (11736163_a_at) / Fold change /veh CDKN2B (11736163_a_at) / RFU PRF1 (11729649_at) / Fold change /veh PRF1 (11729649_at) / RFU, ZNF638 /// ZNF638-IT1 / Fold change vs veh, ZNF638 /// ZNF638-IT1 / RFU, PANK3 / Fold change vs veh, PANK3 / RFU, SH3YL1 / Fold change vs veh, SH3YL1 / RFU, ZEB2 / Fold change vs veh, ZEB2 / RFU, NRIP1 / Fold change vs veh, NRIP1 / RFU, PTTG1IP / Fold change vs veh, PTTG1IP / RFU, CAPN2 / Fold change vs veh, CAPN2 / RFU, MED14 / Fold change vs veh, MED14 / RFU, SNORA58 / Fold change vs veh, SNORA58 / RFU, C1orf63 / Fold change vs veh, C1orf63 / RFU, LRRFIP1 / Fold change vs veh, LRRFIP1 / RFU, NDUFAF7 / Fold change vs veh, NDUFAF7 / RFU, SLC12A2 / Fold change vs veh, SLC12A2 / RFU, IBTK / Fold change vs veh, IBTK / RFU, ESF1 / Fold change vs veh, ESF1 / Fold change vs veh, TMEM50B / RFU, TAOK1 / Fold change vs veh, TAOK1 / RFU, ACBD3 / Fold change vs veh, ACBD3 / RFU, TMA16 / Fold change vs veh, TMA16 / RFU, RWDD3 / Fold change vs veh, RWDD3 / RFU, BCAT1 / Fold change vs veh, BCAT1 / RFU, EDEM3 / Fold change vs veh, EDEM3 / RFU, TMEM33 / Fold change vs veh, TMEM33 / RFU, WDR75 / Fold change vs veh, WDR75 / RFU, AHCTF1 / Fold change vs veh, AHCTF1 / RFU, TFRC / Fold change vs veh, TFRC / RFU, ZDHHC17 / Fold change vs veh, ZDHHC17 / RFU, NOM1 / Fold change vs veh, NOM1 / RFU, ARL8B / Fold change vs veh, ARL8B / RFU, ZBTB11 / Fold change vs veh, ZBTB11 / RFU, TAMM41 / Fold change vs veh, TAMM41 / RFU, KIAA1704 /// LOC100996395 / Fold change vs veh, KIAA1704 /// LOC100996395 / RFU, ING1 / Fold change vs veh, ING1 / RFU, TRMT61B / Fold change vs veh, TRMT61B / RFU, FUBP3 / Fold change vs veh, FUBP3 / RFU, TP53 / Fold change vs veh, TP53 / RFU, TNKS2 / Fold change vs veh, TNKS2 / RFU, ZFP14 / Fold change vs veh, ZFP14 / RFU, ACTR2 / Fold change vs veh, ACTR2 / RFU, PPP3R1 / Fold change vs veh, PPP3R1 / RFU, PIK3R1 / Fold change vs veh, PIK3R1 / RFU, HNRNPA1 / Fold change vs veh, HNRNPA1 / RFU, RNF170 / Fold change vs veh, RNF170 / RFU, ZNF28 / Fold change vs veh, ZNF28 / RFU, RNGTT / Fold change vs veh, RNGTT / RFU, OGT / Fold change vs veh, OGT / RFU, BRD1 / Fold change vs veh, BRD1 / RFU, MARS / Fold change vs veh, MARS / RFU, ZNF655 / Fold change vs veh, ZNF655 / RFU, FAHD1 / Fold change vs veh, FAHD1 / RFU, BDP1 / Fold change vs veh, BDP1 / RFU, LRRCC1 / Fold change vs veh, LRRCC1 / RFU, ARID1A / Fold change vs veh, ARID1A / RFU, ZNF146 / Fold change vs veh, ZNF146 / RFU, ZNF330 / Fold change vs veh, ZNF330 / RFU, GPN3 / Fold change vs veh, GPN3 / RFU, C9orf123 / Fold change vs veh, C9orf123 / RFU, N4BP2L2 / Fold change vs veh, N4BP2L2 / RFU, ARFIP1 / Fold change vs veh, ARFIP1 / RFU, FAM179B / Fold change vs veh, FAM179B / RFU, BCL10 / Fold change vs veh, BCL10 / RFU, UHRF1BP1L / Fold change vs veh, UHRF1BP1L / RFU, BET1 / Fold change vs veh, BET1 / RFU, CNOT2 / Fold change vs veh, CNOT2 / RFU, ZNF268 / Fold change vs veh, ZNF268 / Fold change vs veh, ZNF507 / RFU, DGCR2 / Fold change vs veh, DGCR2 / RFU, WDSUB1 / Fold change vs veh, WDSUB1 / Fold change vs veh, HSP90B1 /// MIR3652 / RFU, ADSS / Fold change vs veh, ADSS / RFU, GK / Fold change vs veh, GK / RFU, ZNF148 / Fold change vs veh, ZNF148 / RFU, TAF9 / Fold change vs veh, TAF9 / RFU, SLC1A5 / Fold change vs veh, SLC1A5 / RFU, SLMO2 / Fold change vs veh, SLMO2 / RFU, ABCC4 / Fold change vs veh, ABCC4 / RFU, LOC101060439 /// RAP1B / Fold change vs veh, LOC101060439 /// RAP1B / RFU, RFX7 / Fold change vs veh, RFX7 / RFU, GTPBP10 / Fold change vs veh, GTPBP10 / RFU, CNEP1R1 / Fold change vs veh, CNEP1R1 / RFU, BIVM-ERCC5 /// ERCC5 / Fold change vs veh, BIVM-ERCC5 /// ERCC5 / RFU, ILF3 / Fold change vs veh, ILF3 / RFU 11762660_at / Fold change /veh 11762660_at / RFU VCAN (11757783_s_at) / Fold change /veh VCAN (11757783_s_at) / RFU DDX43 (11728927_at) / Fold change /veh DDX43 (11728927_at) / RFU KRT8 (11758188_x_at) / Fold change /veh KRT8 (11758188_x_at) / RFU NKD1 (11759106_at) / Fold change /veh NKD1 (11759106_at) / RFU SRD5A1 (11742802_a_at) / Fold change /veh SRD5A1 (11742802_a_at) / RFU TPSAB1 /// TPSB2 (11721975_s_at) / Fold change /veh TPSAB1 /// TPSB2 (11721975_s_at) / RFU GSTM3 (11746129_a_at) / Fold change /veh GSTM3 (11746129_a_at) / RFU IL23R (11737362_x_at) / Fold change /veh IL23R (11737362_x_at) / RFU TMEM51 (11727254_a_at) / Fold change /veh TMEM51 (11727254_a_at) / RFU PIWIL2 (11732686_x_at) / Fold change /veh PIWIL2 (11732686_x_at) / RFU ORM1 (11744905_x_at) / Fold change /veh ORM1 (11744905_x_at) / RFU CCDC152 (11743942_at) / Fold change /veh CCDC152 (11743942_at) / RFU ECM1 (11717891_a_at) / Fold change /veh ECM1 (11717891_a_at) / RFU IL23R (11748794_a_at) / Fold change /veh IL23R (11748794_a_at) / RFU TNFAIP8L3 (11732012_x_at) / Fold change /veh TNFAIP8L3 (11732012_x_at) / RFU MBOAT4 (11741988_at) / Fold change /veh MBOAT4 (11741988_at) / RFU 11764193_at / Fold change /veh 11764193_at / RFU TMEM53 (11763286_at) / Fold change /veh TMEM53 (11763286_at) / RFU MAGEB2 (11727129_at) / Fold change /veh MAGEB2 (11727129_at) / RFU TMEM200A (11744735_a_at) / Fold change /veh TMEM200A (11744735_a_at) / RFU CCDC152 (11751479_a_at) / Fold change /veh CCDC152 (11751479_a_at) / RFU FAM211A (11726209_a_at) / Fold change /veh FAM211A (11726209_a_at) / RFU RGS16 (11746705_a_at) / Fold change /veh RGS16 (11746705_a_at) / RFU VCAN (11755009_s_at) / Fold change /veh VCAN (11755009_s_at) / RFU RHOB (11743442_s_at) / Fold change /veh RHOB (11743442_s_at) / RFU RGS16 (11720943_a_at) / Fold change /veh RGS16 (11720943_a_at) / RFU RGS16 (11720944_at) / Fold change /veh RGS16 (11720944_at) / RFU, VPS4B / Fold change vs veh, VPS4B / RFU, CREB1 / Fold change vs veh, CREB1 / RFU, DNAJC13 / Fold change vs veh, DNAJC13 / RFU, GNAQ / Fold change vs veh, GNAQ / RFU, CDK5R1 / Fold change vs veh, CDK5R1 / RFU, ZRANB3 / Fold change vs veh, ZRANB3 / RFU, CUL4A / Fold change vs veh, CUL4A / RFU, CCNY / Fold change vs veh, CCNY / RFU, UFL1 / Fold change vs veh, UFL1 / RFU, COG3 / Fold change vs veh, COG3 / RFU, DIAPH2 / Fold change vs veh, DIAPH2 / RFU, SKA2 / Fold change vs veh, SKA2 / RFU, AFF3 / Fold change vs veh, AFF3 / RFU, LMF1 / Fold change vs veh, LMF1 / RFU, IPO11 / Fold change vs veh, IPO11 / RFU, DFFB / Fold change vs veh, DFFB / RFU, FOXP1 / Fold change vs veh, FOXP1 / RFU, CARD8 / Fold change vs veh, CARD8 / RFU, STRN3 / Fold change vs veh, STRN3 / RFU, ADK / Fold change vs veh, ADK / RFU, RASSF2 / Fold change vs veh, RASSF2 / RFU, WIPF1 / Fold change vs veh, WIPF1 / RFU, LARP1B / Fold change vs veh, LARP1B / RFU, RASA1 / Fold change vs veh, RASA1 / RFU, RB1 / Fold change vs veh, RB1 / RFU, PPFIA1 / Fold change vs veh, PPFIA1 / RFU, MAT2A / Fold change vs veh, MAT2A / RFU, CCT5 / Fold change vs veh, CCT5 / RFU, WDR92 / Fold change vs veh, WDR92 / RFU, CUX1 / Fold change vs veh, CUX1 / RFU, TTC7A / Fold change vs veh, TTC7A / RFU, TMEM135 / Fold change vs veh, TMEM135 / RFU, DEPTOR / Fold change vs veh, DEPTOR / RFU, CPM / Fold change vs veh, CPM / RFU, DNAJB6 / Fold change vs veh, DNAJB6 / RFU, CACNA2D3 / Fold change vs veh, CACNA2D3 / RFU, DTX4 / Fold change vs veh, DTX4 / RFU, TFCP2 / Fold change vs veh, TFCP2 / RFU, GMCL1 /// GMCL1P1 / Fold change vs veh, GMCL1 /// GMCL1P1 / RFU, AEBP2 / Fold change vs veh, AEBP2 / RFU, SNHG1 /// SNORD22 /// SNORD25 /// SNORD26 /// SNORD27 /// SNORD28 /// SNORD29 /// SNORD31 / Fold change vs veh, SNHG1 /// SNORD22 /// SNORD25 /// SNORD26 /// SNORD27 /// SNORD28 /// SNORD29 /// SNORD31 / Fold change (Aza/veh), C12orf56 (ProbeSet 11735607_a_at) / Fold change (ACY-1035/veh), C12orf56 (ProbeSet 11735607_a_at) / Fold change (Aza/veh), FGFR1OP (ProbeSet 11751329_s_at) / Fold change (ACY-1035/veh), FGFR1OP (ProbeSet 11751329_s_at) / Fold change (Aza/veh), VPS36 (ProbeSet 11739960_a_at) / Fold change (ACY-1035/veh), VPS36 (ProbeSet 11739960_a_at) / RFU SYPL1 (11715823_x_at) / Fold change /veh SYPL1 (11715823_x_at) / RFU IGFBP7 (11715501_s_at) / Fold change /veh IGFBP7 (11715501_s_at) / RFU REEP3 (11722064_at) / Fold change /veh REEP3 (11722064_at) / RFU IGLL1 (11728026_x_at) / Fold change /veh IGLL1 (11728026_x_at): dose or concentration left out as unconfirmed. To be noted: MV-4-11 cells, 48 hours.

On to `Nc1ncn([C@@H]2O[C@H](CO)[C@@H](O)[C@H]2O)c(=O)n1` [azacitidine], for which the “Fold change /veh SOX15 (11748057_x_at)” value was 1.06.
